This note sets out measurements from BindingDB's records for doi:10.1021/jm050859x (Amgen, 2006).

Some results are limits rather than exact numbers.

In this test the target is RNA-directed RNA polymerase (Hepacivirus hominis, UniProt Q8JXU8). Kind of test: Inhibitory activity against HCV delta 21 NS5b RNA polymerase.
RNA-directed RNA polymerase, sequence (Q8JXU8 whole entry): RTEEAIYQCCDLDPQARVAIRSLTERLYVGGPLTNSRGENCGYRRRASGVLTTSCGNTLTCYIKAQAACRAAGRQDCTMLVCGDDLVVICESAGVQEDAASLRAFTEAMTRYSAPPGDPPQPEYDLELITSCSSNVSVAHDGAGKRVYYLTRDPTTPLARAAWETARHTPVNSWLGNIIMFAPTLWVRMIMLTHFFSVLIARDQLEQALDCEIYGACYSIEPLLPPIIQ

The IC50 is the midpoint of a concentration-inhibition curve. Read a low IC50 as greater potency. As to `C=C(c1ccc(Cl)c(Cl)c1)c1sc(=S)n(NS(=O)(=O)c2ccccc2)c1O` [5-(3,4-dichlorophenyl-1-ethylene)-3-(benzenesulfonylamino)-4-oxo-2-thionothiazolidine], the IC50 is 0.6 µM.

In the case of `O=S(=O)(Nn1c(O)c(Cc2ccc(Cl)c(Cl)c2)sc1=S)c1ccccc1` [5-(3,4-dichlorobenzyl)-3-(benzenesulfonylamino)-4-oxo-2-thionothiazolidine], the IC50 was determined as 11 µM. As for `O=C1C(=Cc2ccc(-c3cc(C(F)(F)F)ccc3Cl)o2)SC(=S)N1NS(=O)(=O)c1ccccc1` [5-(5-[2-chloro-5-(trifluoromethyl)phenyl]-furan-2-methylene)-3-(benzenesulfonylamino)-4-oxo-2-thionothiazolidine], the figure is 0.1 µM; as for `O=C1N=C(S)SC1=Cc1ccc(Cl)cc1` [5-(4-chlorobenzylidene)-2-thioxothiazolidin-4-one], over 30 µM. As for `O=C(NN1C(=O)C(=Cc2ccc(Cl)cc2)SC1=S)c1ccccc1` [5-(4-chlorobenzylidene)-3-(benzoylamino)-4-oxo-2-thionothiazolidine], the figure is over 30 µM.
